Data published in patent US11731961B2, “Phenyl propionic acid derivatives and uses thereof” (ILDONG PHARMACEUTICAL CO., LTD., priority 2016, dated 2023).

Molecular target: T1, GPR40 (Homo sapiens, UniProt O14842)
T1 construct: expressed in transfected cells
Assay: Cell-Based Aequorin Assay (agonistic activity)
Conditions: 1 μM test compound; percentage of the activity of the reference agonist at its EC100 concentration
Procedure: <In Vitro Assay 1> Cell-Based Aequorin Assay
Recombinant cells grown 18 h prior to the test in media without antibiotics were detached by gentle flushing with PBS-EDTA (5 mM EDTA), recovered by centrifugation and resuspended in “assay buffer” (DMEM/HAM's F12 with HEPES+0.1% BSA fatty-acid free). Cells were incubated at room temperature for at least 4 h with Coelenterazine (Molecular Probes). Dose response curves with the reference compounds were performed before testing the compounds.
For agonistic activity testing, 50 μL of cell suspension was injected on 96-well plates with plated 50 μL of test compounds or reference agonist. The resulting emission of light was recorded using the Hamamatsu Functional Drug Screening System 6000 (FDSS 6000).
To standardize the emission of recorded light (determination of the “100% signal”) across plates and across different experiments, some of the wells contained the reference agonist at its EC100 obtained during the test validation. Agonistic activities of test compounds were expressed as a percentage of the activity of the reference agonist at its EC100 concentration.

T1 sequence (O14842 whole entry): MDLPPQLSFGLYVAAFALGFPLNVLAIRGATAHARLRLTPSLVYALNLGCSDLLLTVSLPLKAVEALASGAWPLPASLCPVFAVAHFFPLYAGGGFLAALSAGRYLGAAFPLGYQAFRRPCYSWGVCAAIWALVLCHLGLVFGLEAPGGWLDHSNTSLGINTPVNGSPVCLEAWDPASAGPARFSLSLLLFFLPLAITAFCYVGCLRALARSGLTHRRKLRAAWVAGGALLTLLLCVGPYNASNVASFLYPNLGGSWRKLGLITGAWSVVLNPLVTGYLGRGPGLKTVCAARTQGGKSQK

Row | SMILES | Agonistic activity (%, 1 μM)
1 | Cc1cc(OCCCS(C)(=O)=O)cc(C)c1-c1cccc(COc2ccc3c(c2)OC[C@H]3CC(=O)O)c1 [Comparative Example 1, reference compound] | +++ (+++: over 70)
2 | CC#C[C@@H](CC(=O)O)c1ccc(O[C@@H]2CCc3c(-c4ccc(OC5CCS(=O)(=O)CC5)nc4)ccc(F)c32)cc1 [Example 1, (S)-3-(4-(((R)-4-(6-((1,1-Dioxidotetrahydro-2H-thiopyran-4-yl)oxy)pyridin-3-VI)-7-fluoro-2,3-dihydro-1H-inden-1-yl)oxy)phenyl)hex-4-ynoic acid] | + (+: under 40)
3 | CC#C[C@@H](CC(=O)O)c1ccc(O[C@@H]2CCc3c(-c4ccc(OCCN5CCS(=O)(=O)CC5)nc4)ccc(F)c32)cc1 [Example 3, (S)-3-(4-(((R)-4-(6-(2-(1,1-Dioxidothiomorpholino)ethoxy)pyridin-3-yl)-7-fluoro-2,3-dihydro-1H-inden-1-yl)oxy)phenyl)hex-4-ynoic acid] | + (+: under 40)
4 | CC#C[C@@H](CC(=O)O)c1ccc(O[C@@H]2CCc3c(-c4ccc(O[C@@H]5CCOC5)nc4)ccc(F)c32)cc1 [Example 5, (S)-3-(4-(((R)-7-Fluoro-4-(6-(((R)-tetrahydrofuran-3-yl)oxy)pyridin-3-yl)-2,3-dihydro-1H-inden-1-yl)oxy)phenyl)hex-4-ynoic acid] | +++ (+++: over 70)
5 | CC#C[C@@H](CC(=O)O)c1ccc(O[C@@H]2CCc3c(-c4ccc(OC5CCOCC5)nc4)ccc(F)c32)cc1 [Example 6, (S)-3-(4-(((R)-7-Fluoro-4-(6-((tetrahydro-2H-pyran-4-yl)oxy)pyridin-3-yl)-2,3-dihydro-1H-inden-1-yl)oxy)phenyl)hex-4-ynoic acid] | +++ (+++: over 70)
6 | CC#C[C@@H](CC(=O)O)c1ccc(O[C@@H]2CCc3c(-c4ccc(O[C@H]5CCOC5)nc4)ccc(F)c32)cc1 [Example 7, (S)-3-(4-(((R)-7-Fluoro-4-(6-(((S)-tetrahydrofuran-3-yl)oxy)pyridin-3-yl)-2,3-dihydro-1H-inden-1-yl)oxy)phenyl)hex-4-ynoic acid] | +++ (+++: over 70)
7 | CC#C[C@@H](CC(=O)O)c1ccc(O[C@@H]2CCc3c(-c4cnc(O[C@@H]5CCOC5)cc4C)ccc(F)c32)cc1 [Example 8, (S)-3-(4-(((R)-7-Fluoro-4-(4-methyl-6-(((R)-tetrahydrofuran-3-yl)oxy)pyridin-3-yl)-2,3-dihydro-1H-inden-1-yl)oxy)phenyl)hex-4-ynoic acid] | ++ (++: 40-70)
8 | CC#C[C@@H](CC(=O)O)c1ccc(O[C@@H]2CCc3c(-c4cncc(O[C@@H]5CCOC5)c4)ccc(F)c32)cc1 [Example 15, (S)-3-(4-(((R)-7-Fluoro-4-(5-(((R)-tetrahydrofuran-3-yl)oxy)pyridin-3-yl)-2,3-dihydro-1H-inden-1-yl)oxy)phenyl)hex-4-ynoic acid] | ++ (++: 40-70)
9 | CC#C[C@@H](CC(=O)O)c1ccc(O[C@@H]2CCc3c(-c4cncc(OC5CCOCC5)c4)ccc(F)c32)cc1 [Example 16, (S)-3-(4-(((R)-7-Fluoro-4-(5-((tetrahydro-2H-pyran-4-yl)oxy)pyridin-3-yl)-2,3-dihydro-1H-inden-1-yl)oxy)phenyl)hex-4-ynoic acid] | ++ (++: 40-70)
10 | CC#C[C@@H](CC(=O)O)c1ccc(O[C@@H]2CCc3c(-c4cnc(OC5CCOCC5)c(Cl)c4)ccc(F)c32)cc1 [Example 17, (S)-3-(4-(((R)-4-(5-Chloro-6-((tetrahydro-2H-pyran-4-yl)oxy)pyridin-3-yl)-7-fluoro-2,3-dihydro-1H-inden-1-yl)oxy)phenyl)hex-4-ynoic acid] | +++ (+++: over 70)
11 | CC#C[C@@H](CC(=O)O)c1ccc(O[C@@H]2CCc3c(-c4cnc(O[C@@H]5CCOC5)c(C#N)c4)ccc(F)c32)cc1 [Example 18, (S)-3-(4-(((R)-4-(5-Cyano-6-(((R)-tetrahydrofuran-3-yl)oxy)pyridin-3-yl)-7-fluoro-2,3-dihydro-1H-inden-1-yl)oxy)phenyl)hex-4-ynoic acid] | +++ (+++: over 70)
12 | CC#C[C@@H](CC(=O)O)c1ccc(O[C@@H]2CCc3c(-c4cnc(OC5CCOCC5)c(C#N)c4)ccc(F)c32)cc1 [Example 19, (S)-3-(4-(((R)-4-(5-Cyano-6-((tetrahydro-2H-pyran-4-yl)oxy)pyridin-3-yl)-7-fluoro-2,3-dihydro-1H-inden-1-yl)oxy)phenyl)hex-4-ynoic acid] | +++ (+++: over 70)
13 | CC#C[C@@H](CC(=O)O)c1ccc(O[C@@H]2CCc3c2ccc(C#N)c3-c2ccc(O[C@@H]3CCOC3)nc2)cc1 [Example 20, (S)-3-(4-(((R)-5-Cyano-4-(6-(((R)-tetrahydrofuran-3-yl)oxy)pyridin-3-yl)-2,3-dihydro-1H-inden-1-yl)oxy)phenyl)hex-4-ynoic acid] | +++ (+++: over 70)
14 | CC#C[C@@H](CC(=O)O)c1ccc(O[C@@H]2CCc3c2ccc(F)c3-c2ccc(O[C@@H]3CCOC3)nc2)cc1 [Example 21, (S)-3-(4-(((R)-5-Fluoro-4-(6-(((R)-tetrahydrofuran-3-yl)oxy)pyridin-3-yl)-2,3-dihydro-1H-inden-1-yl)oxy)phenyl)hex-4-ynoic acid] | +++ (+++: over 70)
15 | CC#C[C@@H](CC(=O)O)c1ccc(O[C@@H]2CCc3c2ccc(F)c3-c2ccc(OC3CCOCC3)nc2)cc1 [Example 24, (S)-3-(4-(((R)-5-Fluoro-4-(6-((tetrahydro-2H-pyran-4-yl)oxy)pyridin-3-yl)-2,3-dihydro-1H-inden-1-yl)oxy)phenyl)hex-4-ynoic acid] | +++ (+++: over 70)
